The values that follow come from US20240190855A1 (Relay Therapeutics, Inc., priority 2021, published 2024).

This experiment has as its target T1, CDK2/Cyclin E complex (Homo sapiens, UniProt P24941).
T1 construct: purchased Eurofins 14-475
As to the kind of experiment: CDK2/Cyclin E fluorescence-based microfluidic mobility shift assay (CDK2 Biochemical Caliper Assay). As to conditions: read-out: Biochemical CDK2/CyclinE Caliper IC50. As for the experimental part: Compounds of the present disclosure were tested in a CDK2/Cyclin E fluorescence-based microfluidic mobility shift assay (PerkinElmer).
The active wild type CDK2/Cyclin E complex was purchased from Eurofins (14-475). Compound stocks were prepared in DMSO and were serially diluted into 11 concentrations by 3-fold dilution. […] Compounds were incubated in the presence of CDK2/Cyclin E complex and ATP for 30 minutes at room temperature. Catalytic reaction was initiated with the addition of 5 uL of a 4× peptide solution containing 6 uM fluorescently label substrate peptide, FL Peptide 18 (aa sequence 5-FAM-QSPKKG, PerkinElmer, 760362) in 1× reaction buffer.
The final reaction components were 0.1 nM CDK2/Cyclin E, 2000 uM ATP and 1.5 uM FL Peptide 18 and 1% DMSO. Reactions were incubated RT for 20 hr and terminated with 75 uL of a stopping solution containing 0.5 M EDTA. Samples were analyzed using a LabChip EZ reader (PerkinElmer).

With `Cc1cc(CC(=O)Nc2cc([C@H]3CC[C@@H](NC(N)=O)C3)[nH]n2)on1` (racemic) [Example 10], the IC50 lay within 250 to 1000 nM.

`Cc1cc(CC(=O)Nc2cc([C@H]3C[C@@H]4CC[C@H]3C4)[nH]n2)on1` (racemic) [Example 49]: the IC50 lay in the range of 1000 to 100000 nM.

With `Cc1cc(CC(=O)Nc2cc(N3CC[C@@H](COC(=O)NC4(C)CC4)C3)[nH]n2)on1` (racemic) [Example 53], the IC50 lay in the range of 1000 to 100000 nM.

As for `CC(C)NC(=O)O[C@@H]1CC[C@H](c2cc(Nc3nc4cccnc4o3)n[nH]2)C1` (racemic) [Example 140], the IC50 was not above 100 nM.

For `COCc1cc(C(=O)Nc2cc([C@H]3CC[C@H](c4ccc(C)[nH]c4=O)C3)[nH]n2)n(C)n1` (racemic) [Example 517], the IC50 was in the range of 1000 to 100000 nM.

With `COCc1cc(C(=O)Nc2cc([C@H]3CC[C@@H](c4ccc(C)[nH]c4=O)C3)[nH]n2)n(C)n1` (racemic) [Example 518], the IC50 fell in the range of 250 to 1000 nM.

`COCc1cc(C(=O)Nc2cc([C@@H]3CC[C@@H](c4ccc(C(C)C)cn4)C3)[nH]n2)n(C)n1` (racemic) [Example 571]: the IC50 fell in the range of 1000 to 100000 nM.

For the molecule `C[C@H]1CC[C@H](C)N1C(=O)OC[C@H]1C[C@@H](c2cc(Nc3ccc4c(n3)C(C)(C)NC4=O)n[nH]2)C1` (racemic) [Example 593], the IC50 is not above 100 nM.

With `Cc1cc(CC(=O)Nc2cc([C@H]3CCC[C@H](OC(=O)NC4(C)CC4)CC3)[nH]n2)on1` (single isomer, unassigned) [Example 26], the IC50 was in the range of 1000 to 100000 nM.

As to `Cc1cc(CC(=O)Nc2cc([C@@H]3C[C@H](OC(=O)NC4(C)CC4)CO3)[nH]n2)on1` (single isomer, unassigned) [Example 69], the IC50 is not above 100 nM.

`CC(C)NC(=O)N[C@@H]1CC[C@H](c2cc(Nc3ncccn3)n[nH]2)C1` (single isomer, unassigned) [Example 86]: the IC50 was 1000 to 100000 nM.

Regarding `Cc1cc(CC(=O)Nc2cc([C@H]3CC[C@@H](N4CC5(CC5)NC4=O)C3)[nH]n2)on1` (single isomer, unassigned) [Example 90], the IC50 fell in the range of 250 to 1000 nM.

As to `Cc1cc(CC(=O)Nc2cc([C@H]3CC[C@@H](n4cc(C)[nH]c4=O)C3)[nH]n2)on1` (single isomer, unassigned) [Example 92], the IC50 lay in the range of 250 to 1000 nM.

Regarding `Cc1cc(CC(=O)Nc2cc([C@H]3CC[C@@H](n4cc(C(C)C)[nH]c4=O)C3)[nH]n2)on1` (single isomer, unassigned) [Example 93], the IC50 was in the range of 1000 to 100000 nM.

For `Cc1cc(CC(=O)Nc2cc([C@H]3CC[C@@H](Oc4nnccc4C(C)C)C3)[nH]n2)on1` (single isomer, unassigned) [Example 97], the IC50 was not above 100 nM.

Regarding `Cc1cc(CC(=O)Nc2cc([C@H]3C[C@@H](OC(=O)NC4(C)CC4)CO3)[nH]n2)on1` (single isomer, unassigned) [Example 101], the IC50 was not above 100 nM.

Regarding `Cc1cc(CC(=O)Nc2cc([C@@H]3CC[C@H](N(C)C(=O)NC(C)C)C3)[nH]n2)on1` (single isomer, unassigned) [Example 103], the IC50 was in the range of 1000 to 100000 nM.

In the case of `Cc1cc(CC(=O)Nc2cc([C@@H]3CC[C@H](Oc4nnccc4C(C)C)C3)[nH]n2)on1` (single isomer, unassigned) [Example 104], the IC50 is not above 100 nM.

With `Cc1cc(CC(=O)Nc2cc([C@H]3C[C@H](OC(=O)NC4(C)CC4)CO3)[nH]n2)on1` (single isomer, unassigned) [Example 108], the IC50 was 1000 to 100000 nM.

For `Cc1cc(CC(=O)Nc2cc([C@@H]3C[C@@H](OC(=O)NC4(C)CC4)CO3)[nH]n2)on1` (single isomer, unassigned) [Example 109], the IC50 was in the range of 1000 to 100000 nM.

In the case of `COCc1nc2cc(Nc3cc([C@H]4CC[C@@H](OC(=O)NC(C)C)C4)[nH]n3)ncc2s1` (single isomer, unassigned) [Example 111], the IC50 is 250 to 1000 nM.

On to `COCc1nc2cc(Nc3cc([C@@H]4CC[C@H](OC(=O)NC(C)C)C4)[nH]n3)ncc2s1` (single isomer, unassigned) [Example 112], for which the IC50 lay in the range of 100 to 250 nM.

In the case of `CC(C)NC(=O)O[C@H]1CC[C@@H](c2cc(Nc3ccsn3)n[nH]2)C1` (single isomer, unassigned) [Example 113], the IC50 fell in the range of 1000 to 100000 nM.

Consider `CC(C)NC(=O)O[C@@H]1CC[C@H](c2cc(Nc3ccsn3)n[nH]2)C1` (single isomer, unassigned) [Example 114], for which the IC50 lay within 1000 to 100000 nM.

On to `Cc1cc(CC(=O)Nc2cc([C@@H]3CC[C@H](N4CC(C)(C)NC4=O)C3)[nH]n2)on1` (single isomer, unassigned) [Example 118], for which the IC50 lay in the range of 100 to 250 nM.

For `Cc1cc(CC(=O)Nc2cc([C@@H]3CC[C@H](Oc4nnccc4C)C3)[nH]n2)on1` (single isomer, unassigned) [Example 120], the IC50 was not above 100 nM.

For the molecule `CC(C)NC(=O)O[C@@H]1CC[C@H](c2cc(Nc3nccc4ncsc34)n[nH]2)C1` (single isomer, unassigned) [Example 121], the IC50 is not above 100 nM.

`CC(C)NC(=O)O[C@H]1CC[C@@H](c2cc(Nc3nccc4ncsc34)n[nH]2)C1` (single isomer, unassigned) [Example 122]: the IC50 is not above 100 nM.

Regarding `CC(C)NC(=O)N[C@@H]1CC[C@H](c2cc(Nc3ncccn3)n[nH]2)C1` (single isomer, unassigned) [Example 123], the IC50 lay within 1000 to 100000 nM.

On to `CC(C)NC(=O)N[C@H]1CC[C@@H](c2cc(Nc3ncccn3)n[nH]2)C1` (single isomer, unassigned) [Example 124], for which the IC50 is 1000 to 100000 nM.

For `Cc1cc(CC(=O)Nc2cc([C@H]3CC[C@@H](Oc4nscc4C4CC4)C3)[nH]n2)on1` (single isomer, unassigned) [Example 127], the IC50 is not above 100 nM.

For `Cc1cc(CC(=O)Nc2cc([C@@H]3CC[C@H](Oc4nscc4C4CC4)C3)[nH]n2)on1` (single isomer, unassigned) [Example 128], the IC50 was not above 100 nM.

Regarding `Cc1cc(CC(=O)Nc2cc([C@H]3CC[C@@H](NC(=O)CC(C)C)C3)[nH]n2)on1` (single isomer, unassigned) [Example 129], the IC50 lay within 1000 to 100000 nM.

Regarding `Cc1cc(CC(=O)Nc2cc([C@@H]3CC[C@H](NC(=O)CC(C)C)C3)[nH]n2)on1` (single isomer, unassigned) [Example 130], the IC50 lay in the range of 1000 to 100000 nM.

For the molecule `Cc1cc(CC(=O)Nc2cc([C@H]3CC[C@@H](NC(=O)c4ccccc4)C3)[nH]n2)on1` (single isomer, unassigned) [Example 131], the IC50 was in the range of 1000 to 100000 nM.

Regarding `Cc1cc(CC(=O)Nc2cc([C@@H]3CC[C@H](NC(=O)c4ccccc4)C3)[nH]n2)on1` (single isomer, unassigned) [Example 132], the IC50 is 1000 to 100000 nM.

As to `CCS(=O)(=O)N[C@@H]1CC[C@H](c2cc(NC(=O)Cc3cc(C)no3)n[nH]2)C1` (single isomer, unassigned) [Example 133], the IC50 lay within 1000 to 100000 nM.

`CCS(=O)(=O)N[C@H]1CC[C@@H](c2cc(NC(=O)Cc3cc(C)no3)n[nH]2)C1` (single isomer, unassigned) [Example 134]: the IC50 lay in the range of 1000 to 100000 nM.

For the molecule `Cc1cc(CC(=O)Nc2cc([C@@H]3C[C@@H]3COC(=O)NC(C)C)[nH]n2)on1` (single isomer, unassigned) [Example 136], the IC50 fell in the range of 1000 to 100000 nM.

In the case of `Cc1cc(CC(=O)Nc2cc([C@H]3C[C@H]3COC(=O)NC(C)C)[nH]n2)on1` (single isomer, unassigned) [Example 137], the IC50 was in the range of 1000 to 100000 nM.

As for `CC(C)NC(=O)O[C@@H]1CC[C@H](c2cc(Nc3nccn4nccc34)n[nH]2)C1` (single isomer, unassigned) [Example 138], the IC50 is not above 100 nM.

For `CC(C)NC(=O)O[C@H]1CC[C@@H](c2cc(Nc3nccn4nccc34)n[nH]2)C1` (single isomer, unassigned) [Example 139], the IC50 was not above 100 nM.

For the molecule `Cc1cc(CC(=O)Nc2cc([C@H]3CC[C@H](N(C)C(=O)NC(C)C)C3)[nH]n2)on1` (single isomer, unassigned) [Example 141], the IC50 lay within 1000 to 100000 nM.

For the molecule `Cc1cc(CC(=O)Nc2cc([C@@H]3CC[C@@H](N(C)C(=O)NC(C)C)C3)[nH]n2)on1` (single isomer, unassigned) [Example 142], the IC50 lay within 1000 to 100000 nM.

For the molecule `Cc1cc(CC(=O)Nc2cc([C@H]3CC[C@@H](NC(=O)OC(C)C)C3)[nH]n2)on1` (single isomer, unassigned) [Example 143], the IC50 is 1000 to 100000 nM.

As to `Cc1cc(CC(=O)Nc2cc([C@@H]3CC[C@H](NC(=O)OC(C)C)C3)[nH]n2)on1` (single isomer, unassigned) [Example 144], the IC50 fell in the range of 1000 to 100000 nM.

Regarding `CNS(=O)(=O)N[C@@H]1CC[C@H](c2cc(NC(=O)Cc3cc(C)no3)n[nH]2)C1` (single isomer, unassigned) [Example 145], the IC50 lay within 1000 to 100000 nM.

Turning to `CNS(=O)(=O)N[C@H]1CC[C@@H](c2cc(NC(=O)Cc3cc(C)no3)n[nH]2)C1` (single isomer, unassigned) [Example 146], the IC50 lay in the range of 1000 to 100000 nM.

On to `Cc1cc(CC(=O)Nc2cc([C@@H]3CC[C@H](N4CC5(CC5)NC4=O)C3)[nH]n2)on1` (single isomer, unassigned) [Example 338], for which the IC50 was 250 to 1000 nM.

As to `Cc1cc(CC(=O)Nc2cc([C@H]3CC[C@@H](Oc4cccnc4)C3)[nH]n2)on1` (single isomer, unassigned) [Example 339], the IC50 fell in the range of 250 to 1000 nM.

`Cc1cc(CC(=O)Nc2cc([C@@H]3CC[C@H](Oc4cccnc4)C3)[nH]n2)on1` (single isomer, unassigned) [Example 340]: the IC50 was 1000 to 100000 nM.
